Test results reported in US6780853B1, “Neuroactive steroids of the androstane and pregnane series” (priority 1995, dated 2004).
pIC50: −log10 of the molar value. Counter-ions that a name gives are not always drawn.

Target: GABA receptor complex (GRC)
Experiment: [35S]TBPS binding in rat cerebral cortex P2 homogenate
Conditions: for pIC50: concentration to inhibit 50% of control [35S]TBPS binding, 2 nM [35S]TBPS; for IMAX (maximum inhibition): maximum inhibition of [35S]TBPS binding
Source text: To those skilled in the art, it is known that the modulation of [^35S]t-butylbicyclophosphorothionate ([^35S]TBPS) binding is a measure of the potency and efficacy of drugs acting at the GRC, which drugs may be of potential therapeutic value in the treatment of stress, anxiety, and seizure disorders (Squires, R. F., et al., Mol, Pharmacol., 23:326 (1983); Lawrence, L. J., et al., Biochem. Biophys. Res. Comm., 123:1130-1137 (1984); Wood, et al., Pharmacol, Exp. Ther., 231:572-576 (1984)). Several experiments were performed previously to determine the nature of the modulation of [^35S]TBPS as affected by neuroactive steroids. […] Furthermore, these compounds have high potency and efficacy at the GRC, with stringent structural requirements for such activity.
The procedures for performing this assay are fully discussed in: (1) Gee, K. W. et al., European Journal of Pharmacology, 136:419-423 (1987)); and (2) Gee, et al., Molecular Pharmacology 30:218 (1986). These procedures were performed as follows:
Brains from male Sprague-Dawley rats were removed immediately following sacrifice and the cerebral cortices dissected over ice. A P2 homogenate was prepared as previously described (Gee, et al., Molecular Pharmacology 30:218 (1986)). Briefly, the cortices were gently homogenized in 032 M sucrose followed by centrifugation at 1000×g for 10 minutes. The supernatant was collected and centrifuged at 9000×g for 20 minutes. The resultant P2 pellet was suspended as a 10% (original wet weight/volume) suspension in 50 mM Na/K phosphate buffer (pH 7.4) 200 mM NaCl to form the homogenate.
One hundred microliter […] aliquots of the P2 homogenate (0.5 milligrams (mg) protein) were incubated with 2 nanomolar (nM) [^35S]TBPS (70-110 curies/millimole; New England Nuclear, Boston, Mass.) in the presence or absence of the naturally occurring steroids or their synthetic derivatives to be tested. The tested compounds were dissolved in dimethylsulfoxide (Baker Chem. Co., Phillipsburg, N.J.) and added to the incubation mixture in 5 μL aliquots. The incubation mixture was brought to a final volume of 1 mL with buffer. Non-specific binding was defined as binding in the presence of […]. The effect and specificity of GABA (Sigma Chem. Co., St. Louis, Mo.) was evaluated by performing all assays in the presence of GABA plus (+)bicuculline (Sigma Chem. Co.). Incubations maintained at 25° C. for 90 minutes (steady state conditions) were terminated by rapid filtration through glass fiber filters (No. 32, Schleicher and Schuell, Keene, N.H.). Filter-bound radioactivity was quantitated by liquid scintillation spectrophotometry. Kinetic data and compound/[^35S]TBPS dose-response curves were analyzed by nonlinear regression using a computerized iterative procedure to obtain rate constants and IC50 (concentration of compound at which half-maximal inhibition of basal [^35S]TBPS binding occurs) values.
Various compounds were screened to determine their potential as modulators of [^35S]TBPS binding in vitro. These assays were performed in accordance with the above discussed procedures. Based on these assays, we have established the structure-activity requirements for their specific interaction at the GRC and their rank order potency and efficacy. Experimental data obtained in this assay for a number of 3α-hydroxypregnan-20-one derivatives is discussed in Gee, K. W. et al., European Journal of Pharmacology, 136:419-423 (1987) and in U.S. Pat. No. 5,232,917. Table 1 provides IC50 and maximum inhibition (IMAX) measurements for numerous compounds, including examples of compounds disclosed and claimed herein. IC50 is defined as concentration of compounds to inhibit 50% of control [^35S]TBPS binding. It is an indication of a compound's in vitro potency. Maximum inhibition is an indication of a compound's in vitro efficacy.

SMILES	pIC50	IMAX (maximum inhibition) [%]
CC(C)O[C@H]1C[C@@]2(C)[C@@H](CC[C@H]3[C@@H]4CCC[C@@]4(C)CC[C@@H]32)C[C@@H]1O [3α-Hydroxy-2β-isopropoxy-5α-androstane, 2β-Isopropoxy-3α-hydroxy-5α-androstane]	6.34	98
CO[C@H]1CC[C@H]2[C@@H]3CC[C@H]4C[C@H](O)[C@@H](OC(C)C)C[C@]4(C)[C@H]3CC[C@]12C [3α-Hydroxy-2β-isopropoxy-17β-methoxy-5α-androstane]	7.59	100
CCCOC1CC2(C)C(CCC3C2CCC2(C)C(C(=O)CSc4cc[n+](C)cc4)CCC32)CC1O (stereo not drawn) [3α-Hydroxy-2β-propoxy-21-(pyrid-4-ylthio)-5α-pregnan-20-one N-methyl iodide]	6.90	101
CCCO[C@H]1C[C@@]2(C)[C@@H](CC[C@@H]3[C@@H]2CC[C@]2(C)[C@@H](C(=O)CS(=O)(=O)CCCS(=O)(=O)[O-])CC[C@@H]32)C[C@@H]1O.[Na+] [3α-Hydroxy-2β-propoxy-21-sulfonylpropanesulfonate-5α-pregnan-20-one sodium salt]	5.99	101
CC(=O)c1ccc(C#CC2(O)CCC3C(CCC4C3CCC3(C)CCCC43)C2)cc1 (stereo not drawn) [3α-Hydroxy-3β-(4′-acetylphenyl)ethynyl-5β-19-norandrostane]	6.31	99
COCC1(O)CCC2(C)C(CCC3C2CCC2(C)C(C(=O)CS(=O)(=O)c4ccc(N5CCCC5)cc4)CCC32)C1 (stereo not drawn) [3α-Hydroxy-3β-methoxymnethyl-21-(4′-pyrrolidinophenyl)sulfonyl-5α-pregnan-20-one]	6.68	101
C#CCO[C@H]1CC[C@H]2[C@@H]3CC[C@H]4C[C@](C)(O)CC[C@]4(C)[C@H]3CC[C@]12C [3α-Hydroxy-3β-methyl-17β-(2-propynyloxy)-5α-androstane]	6.79	94
C[C@@]12CCC[C@H]1[C@@H]1CC[C@H]3C[C@H](O)CC[C@]3(C)[C@H]1CC2 [3α-Hydroxy-5α-androstane, reference compound]	6.31	99
C[C@@]12CCC[C@H]1[C@@H]1CC[C@@H]3C[C@H](O)CC[C@]3(C)[C@H]1CC2 [3α-Hydroxy-5β-androstane, reference compound]	6.09	83
COC1CCC2C3CCC4CC(O)(C(F)(F)F)CCC4(C)C3CCC12C (stereo not drawn) [3α-Hydroxy-17β-methoxy-3β-trifluoromethyl-5α-androstane]	6.47	100
CO[C@H]1CC[C@H]2[C@@H]3CC[C@H]4C[C@](C)(O)CC[C@]4(C)[C@H]3CC[C@]12C [3α-Hydroxy-17β-methoxy-3βmethyl-5α-androstane]	7.01	97
CC12CCC(O)CC1CCC1C2CCC2(C)C(C(=O)COc3ccc[n+]([O-])c3)CCC12 (stereo not drawn) [3α-Hydroxy-21-(3′-pyridyl)oxy-5β-pregnan-20-one N-oxide]	6.53	62
C[C@]12CC[C@@H](O)C[C@H]1CC[C@@H]1[C@@H]2CC[C@]2(C)[C@@H](C(=O)CCc3ccncc3)CC[C@@H]12 [3α-Hydroxy-21-(4-pyridylmethyl)-5β-pregnan-20-one]	6.73	103
C[n+]1ccc(SCC(=O)C2CCC3C4CCC5CC(O)CCC5(C)C4CCC23C)cc1 (stereo not drawn) [3α-Hydroxy-21-(4′-pyridyl)thio-5β-pregnan-20-one N-methyl io] [3α-hydroxy-21-(pyrid-4-ylthio)-5β-pregnan-20-one N-methyl iodide]	6.58	53
C[C@]12CC[C@@H](O)C[C@H]1CC[C@@H]1[C@@H]2CC[C@]2(C)[C@@H](C(=O)COc3ccncc3)CC[C@@H]12 [3α-Hydroxy-21-(pyrid-4-yloxy)-5β-pregnan-20-one]	7.35	76
C[n+]1ccc(SCC(=O)C2CCC3C4CCC5CC(O)CCC5(C)C4CCC23C)cc1 (stereo not drawn) [3α-Hydroxy-21-(pyrid-4-ylthio)-5α-pregnan-20 -one N-methyl i] [3α-Hydroxy-21-(pyrid-4-ylthio)-5α-pregnan-20-one N-methyl iodide]	6.73	100
CC12CCC(O)CC1CCC1C2CCC2(C)C(C(=O)CS(=O)(=O)O)CCC12 (stereo not drawn) [3α-Hydroxy-21-sulfonic acid-5β-pregnan-20-one 21-sodium salt]	6.14	62
CCCOC1CC2(C)C(CCC3C2CCC2(C)C(C(=O)COc4ccc([N+](C)(C)C)cc4)CCC32)CC1O (stereo not drawn) [3α-hydroxy-2β-propoxy-21-(4′-N,N,N-trimethylammoniumphenoxy)-5α-pregnan-20-one iodide salt]	6.89	92
CCCO[C@H]1C[C@@]2(C)[C@@H](CC[C@@H]3[C@@H]2CC[C@]2(C)[C@@H](C(=O)CSc4ccncc4)CC[C@@H]32)C[C@@H]1O [3α-hydroxy-2β-propoxy-21-(pyrid-4-ylthio)-5α-pregnan-20-one]	7.85	98
CCCO[C@H]1C[C@@]2(C)[C@@H](CC[C@@H]3[C@@H]2CC[C@]2(C)[C@@H](C(=O)CSCCCS(=O)(=O)[O-])CC[C@@H]32)C[C@@H]1O.[Na+] [3α-hydroxy-2β-propoxy-21-thiopropanesulfonate-5α-pregnan-20-one sodium salt]	7.17	101
COCC1(O)CCC2(C)C(CCC3C2CCC2(C)C(C(=O)CSc4ccncc4)CCC32)C1 (stereo not drawn) [3α-hydroxy-3β-methoxymethyl-21-(pyrid-4-ylthio)-5α-pregnan-20-one]	7.42	106
C[n+]1cccc2cc(OCC(=O)C3CCC4C5CCC6CC(C)(O)CCC6(C)C5CCC34C)ccc21 (stereo not drawn) [3α-hydroxy-3β-methyl-21-(quinolin-6-yloxy)-5α-pregnan-20-one N-methyl iodide]	6.60	102
C[C@@]1(O)CC[C@@]2(C)[C@@H](CC[C@@H]3[C@@H]2CC[C@]2(C)[C@@H](C(=O)COc4ccc5ncccc5c4)CC[C@@H]32)C1 [3α-hydroxy-3β-methyl-21-(quinolin-6-yloxy)-5α-pregnan-20-one]	7.12	96
CC(=O)c1ccc(C#C[C@@]2(O)CC[C@@]3(C)[C@H](CC[C@@H]4[C@@H]3CC[C@]3(C)[C@@H](C(=O)CSc5ccncc5)CC[C@@H]43)C2)cc1 [3β-(4′-acetylphenyl)ethynyl-3α-hydroxy-21-(pyrid-4ylthio)-5β-pregnan-20-one]	7.54	94
C#CC1(O)CCC2(C)C(CCC3C2CCC2(C)C(C(=O)C[S+]([O-])CCCO)CCC32)C1 (stereo not drawn) [3β-Ethynyl-3α-hydroxy-21-hydroxpropylsulfinyl-5β-pregnan-20-one]	6.11	107
C#C[C@@]1(O)CC[C@@]2(C)[C@H](CC[C@@H]3[C@@H]2CC[C@]2(C)[C@@H](C(=O)CSCCO)CC[C@@H]32)C1 [3β-Ethynyl-3α-hydroxy-21-hydroxyethylthio-5β-pregnan-20-one]	6.74	103
C#C[C@@]1(O)CC[C@@]2(C)[C@H](CC[C@@H]3[C@@H]2CC[C@]2(C)[C@@H](C(=O)CS(=O)(=O)CCCO)CC[C@@H]32)C1 [3β-Ethynyl-3α-hydroxy-21-hydroxypropylsulfonyl-5β-pregnan-20-one]	6.71	107
